Measured values taken from paper PMC5400565, “Real-time near-infrared fluorescence imaging using cRGD-ZW800-1 for intraoperative visualization of multiple cancer types” (Oncotarget, 2017).

Tests used:
Serotonin 5-HT1A = target: T1, Serotonin 5-HT1A (Homo sapiens, UniProt P08908); test: Off-target screening (Eurofins Cerep), 5-HT1A; format: binding
T1 construct: Eurofins Cerep SA (contract screening)

BxPC-3 pancreatic tumors = test: NIR fluorescence imaging, BxPC-3 pancreatic tumors; format: in vivo, mice; conditions: all three dose groups (1.0, 10, 30 nmol), FLARE and Pearl, skin as background
Experimental: (§1) To induce subcutaneous tumors, colorectal cancer cells (HT-29) were injected at 4 sites on the back (500,000 cells per spot). Subsequently, these colorectal tumor cells were transplanted on the colon of other mice, as described by Tseng et al.. Approximately 500,000 pancreatic tumor cells (BxPC-3) were injected into the pancreas, as previously described by Kim et al.. Approximately 40,000 oral tumor cells (OSC-19) were injected in the tongue, as previously described by van Driel et al.. Approximately 500,000 breast tumor cells (MCF-7) were injected in both sides of the mammary fat pad to induce breast cancer tumors.
All animals were imaged using a Pearl® imager (LI-COR, Lincoln, NE) and an original FLARE® prototype. Animals with HT-29 tumors were imaged at 4 and 24 h post injection; animals with BxPC-3 and OSC-19 tumors at 4 h only. Animals with MCF-7 tumors were imaged at 0.5, 1, 2, 4, 6, 8, 24 and 48 h post injection. […] TBRs were calculated by dividing the tumor signal by the background signal. […]
Mice were administered with 0.25 (HT-29 model only), 1.0, 10, or 30 nmol cRGD-ZW800-1 to evaluate tumor signals, biodistribution, and to calculate TBRs (n = 3 per dose group). At 4 h (BxPC-3 model) and 24 h (HT-29 model) after injection, mice were fully dissected and fluorescence intensity of their organs was measured.

Opioid µ (MOP) = target: T2, Opioid µ (MOP) (Homo sapiens, UniProt P35372); test: Off-target screening (Eurofins Cerep), µ (MOP); format: binding
T2 construct: Eurofins Cerep SA (contract screening)

[1] = target: T3, Norepinephrine transporter (Homo sapiens, UniProt P23975); test: Off-target screening (Eurofins Cerep), norepinephrine transporter; format: binding
T3 construct: Eurofins Cerep SA (contract screen)

[2] = target: T4, Nicotinic channels N neuronal α4β2 (Homo sapiens, UniProt P17787+P43681); test: Off-target screening (Eurofins Cerep), N neuronal α4β2; format: binding
T4 construct: Eurofins Cerep SA (contract screen)

[3] = tested on: GABA channels BZD (central); test: Off-target screening (Eurofins Cerep), BZD (central); format: binding
Source text: Off-target interactions are binding of tracers to other components on the cell surface than the actual target site. These non-specific interactions are often of low affinity and easily missed, but can have significant effects. We outsourced the screening for in vitro for off-target interactions of cRGD-ZW800-1 to Eurofins Cerep SA, Le bois l’Evêque, France. They assessed the percentage of inhibition of a reference compound in 44 selected targets, including G protein-coupled receptors (GPCRs), transporters, ion channels, nuclear receptors, kinases and other non-kinase enzymes. These targets were recommended by four major pharmaceutical companies. The complete list is included in Supplementary Table 1 of the Supplementary Data. Each assay was performed twice using 10 μM cRGD-ZW800-1 and a reference compound. Inhibition higher than 50% was considered to represent a significant effect of cRGD-ZW800-1. Results showing between 20% and 50% were considered weak to moderate effects, while lower than 20% was not considered significant and mostly attributable to variability of the signal around the control level.

PDE4D2 = target: T5, PDE4D2 (Homo sapiens, UniProt Q08499); test: Off-target screening (Eurofins Cerep), PDE4D2; format: biochemical
T5 construct: Eurofins Cerep SA (contract screen)

Potassium Channel hERG = Potassium Channel hERG (Homo sapiens, UniProt Q12809)
Adenosine A2A = target: T6, Adenosine A2A (Homo sapiens, UniProt P29274); test: Off-target screening (Eurofins Cerep), A2A; format: binding
T6 construct: Eurofins Cerep SA (contract screening)

dopamine receptor D2S = target: T7, dopamine receptor D2S (Homo sapiens, UniProt P14416); test: Off-target screening (Eurofins Cerep), D2S; format: binding
T7 construct: Eurofins Cerep SA (contract screening)

MCF-7 breast tumors = test: NIR fluorescence imaging, MCF-7 breast tumors; format: in vivo, mice; conditions: 10 nmol, Pearl
Experimental: as §1
All animals were imaged using a Pearl® imager (LI-COR, Lincoln, NE) and an original FLARE® prototype. Animals with HT-29 tumors were imaged at 4 and 24 h post injection; animals with BxPC-3 and OSC-19 tumors at 4 h only. Animals with MCF-7 tumors were imaged at 0.5, 1, 2, 4, 6, 8, 24 and 48 h post injection. The specific and control images were normalized and regions of interest (ROIs) were selected using associated software. TBRs were calculated by dividing the tumor signal by the background signal. Based on our experience a TBR ≥ 2 is sufficient to discriminate between tumor and surrounding tissue.
Mice bearing orthotopic OSC-19 tumors (n = 2) were administrated with 10 nmol cRGD-ZW800-1 and imaged at 4 h. Mice bearing orthotopic MCF-7 tumors (n = 2) were injected with 10 nmol cRGD-ZW800-1 and imaged at 0.5, 1, 2, 4, 6, 8, 24, and 48 h post injection. One mouse with 2 MCF-7 tumors was administered with 10 nmol cRGD-ZW800-1 and imaged at 4 h post injection while its skin was partially removed. In vivo TBRs were calculated by dividing the mean fluorescence signals of tumors by the mean of surrounding tissue. Ex vivo organ-to-tumor ratios were calculated by dividing the fluorescence intensity of the organ by that of the tumor.

Serotonin 5-HT1B = target: T8, Serotonin 5-HT1B (Rattus norvegicus, UniProt P28564); test: Off-target screening (Eurofins Cerep), 5-HT1B; format: binding
T8 construct: Eurofins Cerep SA (contract screening)

Dopamine transporter = target: T9, Dopamine transporter (Homo sapiens, UniProt Q01959); test: Off-target screening (Eurofins Cerep), dopamine transporter; format: binding
T9 construct: Eurofins Cerep SA (contract screening)

Adrenergic β2 = target: T10, Adrenergic β2 (Homo sapiens, UniProt P07550); test: Off-target screening (Eurofins Cerep), β2; format: binding
T10 construct: Eurofins Cerep SA (contract screening)

cyclooxygenase-2 (COX-2) = target: T11, cyclooxygenase-2 (COX-2) (Homo sapiens, UniProt P35354); test: Off-target screening (Eurofins Cerep), COX2; format: biochemical
T11 construct: Eurofins Cerep SA (contract screen)

[4] = target: T12, Cholecystokinin CCK1 (CCKA) (Homo sapiens, UniProt P32238); test: Off-target screening (Eurofins Cerep), CCK1 (CCKA); format: binding
T12 construct: Eurofins Cerep SA (contract screening)

5-HT transporter = target: T13, 5-HT transporter (Homo sapiens, UniProt P31645); test: Off-target screening (Eurofins Cerep), 5-HT transporter; format: binding
T13 construct: Eurofins Cerep SA (contract screen)

[5] = 10 μM cRGD-ZW800-1, format H, Ag, performed twice, read-out: % Inhibition of Control Specific Binding
[6] = 10 μM, mean of 2, read-out: % of Control Specific Binding Mean
[7] = 10 μM cRGD-ZW800-1, format H, An, performed twice, read-out: % Inhibition of Control Specific Binding

T12 sequence (P32238 whole entry): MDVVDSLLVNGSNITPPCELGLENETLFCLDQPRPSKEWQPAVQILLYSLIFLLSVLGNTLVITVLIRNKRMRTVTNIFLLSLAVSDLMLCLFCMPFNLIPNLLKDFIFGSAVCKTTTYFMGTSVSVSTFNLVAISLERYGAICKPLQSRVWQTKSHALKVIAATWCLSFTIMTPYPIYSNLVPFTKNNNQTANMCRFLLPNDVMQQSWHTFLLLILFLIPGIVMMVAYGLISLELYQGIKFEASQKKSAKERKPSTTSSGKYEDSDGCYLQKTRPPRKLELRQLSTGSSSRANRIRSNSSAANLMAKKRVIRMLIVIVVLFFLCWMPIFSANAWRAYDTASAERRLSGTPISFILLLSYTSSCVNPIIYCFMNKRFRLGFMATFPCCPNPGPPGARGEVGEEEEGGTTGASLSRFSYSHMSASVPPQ
T4 sequence (P43681 29-627 limits assumed): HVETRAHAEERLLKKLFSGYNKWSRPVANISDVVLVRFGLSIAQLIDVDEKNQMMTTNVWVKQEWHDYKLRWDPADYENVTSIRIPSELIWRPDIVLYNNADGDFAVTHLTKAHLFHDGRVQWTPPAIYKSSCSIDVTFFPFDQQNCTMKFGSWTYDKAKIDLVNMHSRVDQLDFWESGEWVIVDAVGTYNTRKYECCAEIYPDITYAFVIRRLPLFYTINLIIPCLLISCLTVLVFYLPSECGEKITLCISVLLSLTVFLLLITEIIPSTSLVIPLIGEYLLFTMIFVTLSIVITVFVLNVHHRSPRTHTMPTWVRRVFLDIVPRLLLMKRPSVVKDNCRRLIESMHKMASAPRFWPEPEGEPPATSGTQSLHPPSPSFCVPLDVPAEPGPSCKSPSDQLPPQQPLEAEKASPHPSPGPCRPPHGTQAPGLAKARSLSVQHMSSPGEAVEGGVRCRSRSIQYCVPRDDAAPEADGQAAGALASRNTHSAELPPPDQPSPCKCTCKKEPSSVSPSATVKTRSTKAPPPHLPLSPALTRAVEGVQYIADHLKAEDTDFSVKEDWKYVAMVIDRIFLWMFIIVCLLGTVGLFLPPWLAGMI
T4 sequence (P17787 26-502): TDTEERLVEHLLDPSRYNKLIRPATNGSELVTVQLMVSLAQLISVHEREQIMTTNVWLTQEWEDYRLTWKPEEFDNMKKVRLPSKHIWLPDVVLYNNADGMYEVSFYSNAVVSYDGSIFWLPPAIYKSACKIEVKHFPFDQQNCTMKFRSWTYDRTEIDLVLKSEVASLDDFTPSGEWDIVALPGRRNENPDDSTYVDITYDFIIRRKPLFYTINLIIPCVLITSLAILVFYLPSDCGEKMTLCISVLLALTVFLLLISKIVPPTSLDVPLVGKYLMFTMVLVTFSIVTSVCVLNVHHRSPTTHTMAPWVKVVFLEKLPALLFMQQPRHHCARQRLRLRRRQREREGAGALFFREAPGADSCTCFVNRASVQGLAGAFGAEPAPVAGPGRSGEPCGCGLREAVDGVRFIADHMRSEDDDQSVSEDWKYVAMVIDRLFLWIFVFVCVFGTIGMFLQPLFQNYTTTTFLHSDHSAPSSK
T2 sequence (P35372 whole entry): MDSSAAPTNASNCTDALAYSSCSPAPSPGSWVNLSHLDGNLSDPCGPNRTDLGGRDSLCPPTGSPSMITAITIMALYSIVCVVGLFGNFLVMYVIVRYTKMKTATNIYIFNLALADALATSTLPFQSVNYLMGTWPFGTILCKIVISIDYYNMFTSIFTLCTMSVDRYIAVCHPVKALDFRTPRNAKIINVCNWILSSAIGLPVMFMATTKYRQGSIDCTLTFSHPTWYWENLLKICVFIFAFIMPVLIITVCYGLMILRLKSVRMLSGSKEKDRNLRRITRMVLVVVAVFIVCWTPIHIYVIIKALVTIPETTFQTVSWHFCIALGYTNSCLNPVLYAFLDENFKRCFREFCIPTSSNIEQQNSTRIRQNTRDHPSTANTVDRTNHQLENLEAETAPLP
T7 sequence (P14416 1-414 isoform P14416-2): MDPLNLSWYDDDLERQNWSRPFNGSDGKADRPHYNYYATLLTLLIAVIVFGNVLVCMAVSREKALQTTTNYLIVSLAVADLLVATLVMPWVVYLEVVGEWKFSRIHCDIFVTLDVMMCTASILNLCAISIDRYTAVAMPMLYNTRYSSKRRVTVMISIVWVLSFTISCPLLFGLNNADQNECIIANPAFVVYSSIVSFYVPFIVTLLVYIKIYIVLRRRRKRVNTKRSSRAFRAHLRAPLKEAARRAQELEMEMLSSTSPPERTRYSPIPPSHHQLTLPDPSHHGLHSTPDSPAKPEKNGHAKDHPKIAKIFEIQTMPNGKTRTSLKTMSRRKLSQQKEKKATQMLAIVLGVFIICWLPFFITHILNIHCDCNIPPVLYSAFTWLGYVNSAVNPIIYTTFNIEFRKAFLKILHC
T11 sequence (P35354 18-604): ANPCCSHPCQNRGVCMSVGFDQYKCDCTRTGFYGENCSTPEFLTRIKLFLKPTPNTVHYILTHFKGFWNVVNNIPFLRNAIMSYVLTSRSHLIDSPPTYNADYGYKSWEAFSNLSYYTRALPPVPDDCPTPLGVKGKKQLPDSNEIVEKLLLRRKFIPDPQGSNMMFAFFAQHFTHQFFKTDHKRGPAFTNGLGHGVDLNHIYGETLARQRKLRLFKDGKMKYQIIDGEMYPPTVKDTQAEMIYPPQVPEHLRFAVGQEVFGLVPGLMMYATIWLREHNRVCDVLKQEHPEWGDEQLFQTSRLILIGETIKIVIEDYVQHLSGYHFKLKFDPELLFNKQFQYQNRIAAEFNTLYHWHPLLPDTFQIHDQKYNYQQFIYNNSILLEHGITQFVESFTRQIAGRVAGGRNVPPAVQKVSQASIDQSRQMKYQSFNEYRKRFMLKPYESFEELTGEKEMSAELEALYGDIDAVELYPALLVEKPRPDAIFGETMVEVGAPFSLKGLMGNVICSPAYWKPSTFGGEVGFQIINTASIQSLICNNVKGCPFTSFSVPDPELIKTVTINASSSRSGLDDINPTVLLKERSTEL
T13 sequence (P31645 whole entry): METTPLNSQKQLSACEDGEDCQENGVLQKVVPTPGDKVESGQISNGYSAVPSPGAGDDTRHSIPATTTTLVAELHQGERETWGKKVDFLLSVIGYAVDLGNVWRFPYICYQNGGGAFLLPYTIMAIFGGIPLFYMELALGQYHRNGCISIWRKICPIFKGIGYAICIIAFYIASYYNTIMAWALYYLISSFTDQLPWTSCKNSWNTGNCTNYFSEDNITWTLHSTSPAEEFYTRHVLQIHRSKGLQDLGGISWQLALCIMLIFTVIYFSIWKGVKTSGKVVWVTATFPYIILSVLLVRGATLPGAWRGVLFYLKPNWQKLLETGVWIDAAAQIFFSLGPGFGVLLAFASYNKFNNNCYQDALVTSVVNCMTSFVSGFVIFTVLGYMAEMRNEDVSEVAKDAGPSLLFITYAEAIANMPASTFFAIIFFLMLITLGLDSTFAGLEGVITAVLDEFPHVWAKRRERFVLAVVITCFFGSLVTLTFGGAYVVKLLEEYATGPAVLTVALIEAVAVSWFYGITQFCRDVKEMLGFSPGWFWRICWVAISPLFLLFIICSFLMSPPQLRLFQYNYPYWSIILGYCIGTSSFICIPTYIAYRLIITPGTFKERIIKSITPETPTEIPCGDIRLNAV
T9 sequence (Q01959 whole entry): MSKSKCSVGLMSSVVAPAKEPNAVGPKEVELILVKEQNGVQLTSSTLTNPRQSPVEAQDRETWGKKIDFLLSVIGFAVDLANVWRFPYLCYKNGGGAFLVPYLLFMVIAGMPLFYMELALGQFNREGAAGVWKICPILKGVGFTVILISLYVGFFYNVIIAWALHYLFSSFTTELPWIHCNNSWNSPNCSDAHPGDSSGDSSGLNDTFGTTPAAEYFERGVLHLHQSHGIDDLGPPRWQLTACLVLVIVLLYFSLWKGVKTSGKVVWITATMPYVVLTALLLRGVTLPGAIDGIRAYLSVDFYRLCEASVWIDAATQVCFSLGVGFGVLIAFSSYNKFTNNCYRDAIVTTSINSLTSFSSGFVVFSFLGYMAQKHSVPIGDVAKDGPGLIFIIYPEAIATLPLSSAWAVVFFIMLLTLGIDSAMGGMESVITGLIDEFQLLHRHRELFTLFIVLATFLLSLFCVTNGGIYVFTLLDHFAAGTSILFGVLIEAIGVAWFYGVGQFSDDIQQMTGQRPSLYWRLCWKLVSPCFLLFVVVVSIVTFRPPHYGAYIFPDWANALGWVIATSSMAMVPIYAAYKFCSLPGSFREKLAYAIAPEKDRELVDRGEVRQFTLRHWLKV
T10 sequence (P07550 whole entry): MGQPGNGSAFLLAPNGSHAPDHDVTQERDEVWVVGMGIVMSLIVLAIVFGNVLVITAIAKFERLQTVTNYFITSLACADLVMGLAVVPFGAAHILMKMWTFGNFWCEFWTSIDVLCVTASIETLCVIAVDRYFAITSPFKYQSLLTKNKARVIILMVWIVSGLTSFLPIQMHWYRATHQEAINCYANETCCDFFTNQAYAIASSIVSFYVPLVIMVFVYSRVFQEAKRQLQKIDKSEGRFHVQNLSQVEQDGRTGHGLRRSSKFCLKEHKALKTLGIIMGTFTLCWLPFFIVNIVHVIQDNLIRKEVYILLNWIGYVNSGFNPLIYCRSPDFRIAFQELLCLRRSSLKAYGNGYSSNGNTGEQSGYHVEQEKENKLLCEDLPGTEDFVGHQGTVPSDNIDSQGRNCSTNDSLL
T8 sequence (P28564 whole entry): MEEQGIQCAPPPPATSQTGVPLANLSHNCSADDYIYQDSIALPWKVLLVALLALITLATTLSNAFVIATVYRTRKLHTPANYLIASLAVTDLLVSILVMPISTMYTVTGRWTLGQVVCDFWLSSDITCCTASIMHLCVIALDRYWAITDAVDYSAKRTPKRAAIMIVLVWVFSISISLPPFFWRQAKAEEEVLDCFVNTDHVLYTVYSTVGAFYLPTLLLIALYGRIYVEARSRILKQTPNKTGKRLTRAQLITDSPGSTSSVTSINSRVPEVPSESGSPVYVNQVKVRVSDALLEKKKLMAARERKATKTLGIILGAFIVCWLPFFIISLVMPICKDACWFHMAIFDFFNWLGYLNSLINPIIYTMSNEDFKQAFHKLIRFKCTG

SMILES: CC1(C)C(/C=C/C2=C(Oc3ccc(CCC(=O)NCCCC[C@@H]4NC(=O)[C@@H](Cc5ccc(O)cc5)NC(=O)[C@H](CC(=O)O)NC(=O)CNC(=O)[C@H](CCCNC(=N)N)NC4=O)cc3)C(=C/C=C3/N(CCC[N+](C)(C)C)c4ccc(S(=O)(=O)O)cc4C3(C)C)/CCC2)=[N+](CCC[N+](C)(C)C)c2ccc(S(=O)(=O)O)cc21 [cRGD-ZW800-1]
- inhibition at 10 µM (Serotonin 5-HT1A; [5]): 9%
- remaining activity at 10 µM (Serotonin 5-HT1A; [6]): 90.9%
- TBRs at 4 h post injection (BxPC-3 pancreatic tumors): > 2
- inhibition at 10 µM (Opioid µ (MOP); [5]): 10%
- remaining activity at 10 µM (Opioid µ (MOP); [6]): 90.3%
- inhibition at 10 µM [1, 7]: 3%
- remaining activity at 10 µM [1, 6]: 97.4%
- inhibition at 10 µM [2, 5]: -11%
- remaining activity at 10 µM [2, 6]: 111%
- % Inhibition of Control Specific Binding ([3]; 10 μM cRGD-ZW800-1, format Ag, performed twice): 2%
- % of Control Specific Binding Mean ([3]; 10 μM, mean of 2): 97.6%
- inhibition at 10 µM (PDE4D2; read-out: % Inhibition of Control Specific Binding): 10%
- remaining activity at 10 µM (PDE4D2; read-out: % of Control Specific Binding Mean): 90.3%
- activity at 10 µM (Potassium Channel hERG): 106%
- inhibition at 10 µM (Adenosine A2A; [5]): 8%
- remaining activity at 10 µM (Adenosine A2A; [6]): 91.9%
- inhibition at 10 µM (dopamine receptor D2S; [7]): 22%
- remaining activity at 10 µM (dopamine receptor D2S; [6]): 78.2%
- decrease of fluorescence intensity of tumors at 4 h compared to 0.5 h post injection (MCF-7 breast tumors): 61% ± 8%
- decrease of fluorescence intensity of tumors at 24 h compared to 0.5 h post injection (MCF-7 breast tumors): 77% ± 4%
- TBR at 4 h post injection, with skin (MCF-7 breast tumors; single mouse with 2 tumors): 1.5 ± 0.1
- TBR at 4 h post injection, skin removed (MCF-7 breast tumors; single mouse with 2 tumors, p = 0.02): 3.0 ± 0.3
- inhibition at 10 µM (Serotonin 5-HT1B; 10 μM cRGD-ZW800-1, format An, performed twice, read-out: % Inhibition of Control Specific Binding): 1%
- remaining activity at 10 µM (Serotonin 5-HT1B; [6]): 99.1%
- inhibition at 10 µM (Dopamine transporter; [7]): 5%
- remaining activity at 10 µM (Dopamine transporter; [6]): 95%
- inhibition at 10 µM (Adrenergic β2; [5]): 5%
- remaining activity at 10 µM (Adrenergic β2; [6]): 95%
- inhibition at 10 µM (cyclooxygenase-2 (COX-2); 10 μM cRGD-ZW800-1, format H, performed twice, read-out: % Inhibition of Control Specific Binding): 62%
- remaining activity at 10 µM (cyclooxygenase-2 (COX-2); [6]): 38%
- inhibition at 10 µM [4, 5]: -8%
- remaining activity at 10 µM [4, 6]: 108%
- inhibition at 10 µM (5-HT transporter; [7]): -3%
- remaining activity at 10 µM (5-HT transporter; [6]): 103%
